Test results: US8946299B2, “Use of calixarenes associated with an antibiotic in the treatment of bacterial infections” (Universite de Lorraine, priority 2011, dated 2015)

Key:
[1] = test system: Escherichia coli strain ATCC 25922 (wild type); assay: Chessboard technique: MICs alone and synergism of Cx1 combinations; assay type: cell-based; conditions: antibiotic used alone; second figure of the cell; n = 4
Excerpt: (§1) Three reference strains were used, corresponding to those studied for the MICs and MBCs (Minimum Bactericidal Concentration): Escherichia coli ATCC 25922, Staphylococcus aureus ATCC 29213, Pseudomonas aeruginosa ATCC 27853. For each of these strains 3 corresponding clinical isolates were chosen, having various antibiotic-resistance profiles, routinely used in standard fashion: • EcR1, EcR2, EcR3; • SaR1, SaR3, SaR4; • PaR2, PaR3, PaR5.
(§2) 1.3. Procedure: Chessboard Technique
(§3) The bacterial suspension is transferred to a 15 mL Falcon tube, centrifuged for 10 min at 4500 g, then the pellet is re-suspended in 1 mL of sterile distilled water. Suitable dilutions are then prepared in order to obtain a bacterial inoculum between 5·10^5 and 5·10^6 CFU/mL.
(§4) The MICs of the antibiotics were previously determined for each strain, by the method of microdilution in a liquid medium (CLSI (Clinical and Laboratory Standards Institute), 2003).
(§5) The same procedure is followed for the Cx1. […] Thus 64 ATB/Cx1 combinations are obtained.
(§6) The final volume contained in each of the wells must be 100 μL. Two controls must be present on each plate: • column 1 and 12: medium control • column 2 and 11: medium+bacteria control
(§7) Cx1: […] in the wells of […], starting with the lowest concentration.
(§8) ATB: 25 μL in the wells of rows H to A (columns 3 to 11), starting with the lowest concentration.
(§9) 50 μL in each of the wells of columns 2 to 11.
(§10) D2: Reading the Turbidity at 540 Nm.
(§11) The FIC (Fractional Inhibitory Concentration Index) value is determined by the following formula:
(§12) [formula] MICA in combination MICA alone MICB in combination MICB alone
(§13) When FIC≦0.5, there is a synergistic effect between antibiotic A and antibiotic B.
(§14) When 0.5<FIC≦1, there is an additive effect between antibiotic A and antibiotic B.
(§15) When 1<FIC≦4, there is an indifferent effect between antibiotic A and antibiotic B.
(§16) When FIC>4, there is an antagonistic effect between antibiotic A and antibiotic B.
(§17) For each strain and each antibiotic/Cx1 combination, the experiments were repeated a minimum of 3 times.

[2] = test system: cephalosporinase-hyperproducing strain of Escherichia coli (EcR2); assay: as above; assay type: cell-based; conditions: antibiotic used alone; second figure of the cell; n = 4
Excerpt: as §1, §2, §3, §4, §5, §6, §7, §8, §9, §10, §11, §12, §13, §14, §15, §16, §17

[3] = test system: EcR1: Penicillinase-Producing Escherichia coli without Associated Resistance; assay: Antibiogram, MIC by the VITEK 2 system; assay type: cell-based; conditions: Table A1, category from MIC
Method: (§18) 5. Identification and Antibiogram 5.1 EcR1: Penicillinase-Producing Escherichia coli without Associated Resistance
(§19) The bacterial and antibiogram identification is carried out by the VITEK 2 system (bioMérieux) and by the disk diffusion technique.

[4] = test system: EcR1: Penicillinase-Producing Escherichia coli without Associated Resistance; assay: Antibiogram by the disk diffusion technique; assay type: cell-based; conditions: for Results (diameter): Table A1, category from diameter vs Dmin Dmax
Method: as §18, §19

[5] = test system: ESBL-producing strain of Escherichia coli (EcR3); assay: Chessboard technique: MICs alone and synergism of Cx1 combinations; assay type: cell-based; conditions: antibiotic used alone; second figure of the cell; n = 4
Excerpt: as §1, §2, §3, §4, §5, §6, §7, §8, §9, §10, §11, §12, §13, §14, §15, §16, §17

[6] = test system: EcR2: Cephalosporinase-Hyperproducing Escherichia coli; assay: Antibiogram by the disk diffusion technique; assay type: cell-based; conditions: Table B2; strain EcR2; diameters
Method: 5.2 EcR2: Cephalosporinase-Hyperproducing Escherichia coli Having an Associated Resistance to the Aminoglycosides, Quinolones and the Trimethoprim-Sulphamethoxazole Combination
The bacterial and antibiogram identification is carried out by the VITEK 1 system (bioMérieux) and by the disk diffusion technique

[7] = test system: Pseudomonas aeruginosa strain ATCC 27853 (wild type); assay: Chessboard technique: MICs alone and synergism of Cx1 combinations; assay type: cell-based; conditions: antibiotic used alone; second figure of the cell; n = 4
Excerpt: as §1, §2, §3, §4, §5, §6, §7, §8, §9, §10, §11, §12, §13, §14, §15, §16, §17

[8] = test system: mucoid strain of Pseudomonas aeruginosa having a resistance to rifampicin and the trimethoprim-sulphamethoxazole combination (PaR5); assay: as above; assay type: cell-based; conditions: antibiotic used alone; second figure of the cell; n = 4
Excerpt: as §1, §2, §3, §4, §5, §6, §7, §8, §9, §10, §11, §12, §13, §14, §15, §16, §17

[9] = test system: Pseudomonas aeruginosa strain having a resistance to β-lactams (including the carbapenems), aminoglycosides, the trimethoprim-sulphamethoxazole combination and …; assay: as above; assay type: cell-based; conditions: antibiotic used alone; second figure of the cell; n = 4
Excerpt: as §1, §2, §3, §4, §5, §6, §7, §8, §9, §10, §11, §12, §13, §14, §15, §16, §17

[10] = test system: Pseudomonas aeruginosa strain having a resistance to β-lactams, the trimethoprim-sulphamethoxazole combination and fosfomycin (PaR2); assay type: cell-based; conditions: antibiotic used alone; second figure of the cell; n = 4
Excerpt: as §1, §2, §3, §4, §5, §6, §7, §8, §9, §10, §11, §12, §13, §14, §15, §16, §17

[11] = test system: Escherichia coli, Staphylococcus aureus and Pseudomonas aeruginosa strains; assay: Chessboard technique, summary over all strains and combinations tested; assay type: cell-based
Excerpt: as §1, §2
The FIC (Fractional Inhibitory Concentration Index) value is determined by the following formula: […]
as §17

[12] = test system: Staphylococcus aureus strain ATCC 29213 (wild type); assay: Chessboard technique: MICs alone and synergism of Cx1 combinations; assay type: cell-based; conditions: antibiotic used alone; second figure of the cell; n = 4
Excerpt: as §1, §2, §3, §4, §5, §6, §7, §8, §9, §10, §11, §12, §13, §14, §15, §16, §17

[13] = test system: MRSA strain having a resistance to the aminoglycosides and fluoroquinolones (SaR3); assay: as above; assay type: cell-based, Staphylococcus aureus; conditions: antibiotic used alone; second figure of the cell; n = 4
Excerpt: as §1, §2, §3, §4, §5, §6, §7, §8, §9, §10, §11, §12, §13, §14, §15, §16, §17

[14] = test system: MRSA strain having a resistance to the aminoglycosides, fluoroquinolones, macrolides-lincosamides-synergistins and ofloxacin (SaR4); assay: as above; assay type: cell-based, Staphylococcus aureus; conditions: antibiotic used alone; second figure of the cell; n = 4
Excerpt: as §1, §2, §3, §4, §5, §6, §7, §8, §9, §10, §11, §12, §13, §14, §15, §16, §17

[15] = test system: MRSA strain without associated resistance (SaR1); assay: as above; assay type: cell-based, Staphylococcus aureus; conditions: antibiotic used alone; second figure of the cell; n = 4
Excerpt: as §1, §2, §3, §4, §5, §6, §7, §8, §9, §10, §11, §12, §13, §14, §15, §16, §17

[16] = test system: PaR5: Pseudomonas aeruginosa; assay: Antibiogram by the disk diffusion technique; assay type: cell-based; set-up: unit not given here; conditions: Table I1; strain PaR5

SMILES	Initial MICs (antibiotic) [2] [mg/L]	Results (MIC) [3]	Results (diameter) [4]	Initial MICs (antibiotic) [5] [mg/L]	diameter in mm [6] [mm]	MIC (antibiotic) [7] [µg/mL]	MIC (antibiotic) [8] [µg/mL]	MIC (antibiotic) [9] [µg/mL]	MIC (antibiotic) [10] [µg/mL]	nature of the interaction between Cx1 and the antibiotic [11]	other results
CC(C)(O/N=C(\C(=O)N[C@@H]1C(=O)N2C(C(=O)[O-])=C(C[n+]3ccccc3)CS[C@H]12)c1csc(N)n1)C(=O)O [Ceftazidime]	8	Susceptible		1	20	4	8	16	8	synergism	
C[C@@H]1O[C@@H]1P(=O)(O)O [Fosfomycin]			Susceptible			16	16	> 64	64	synergism	Initials MIC (antibiotic) [12]: 8/8 mg/L; MIC (antibiotic) [13]: 16 µg/mL; MIC (antibiotic) [14]: 128 µg/mL; MIC (antibiotic) [15]: 2 µg/mL; diameter in mm ([4]; Table A2, diameter): 24 mm
CCn1cc(C(=O)O)c(=O)c2cc(F)c(N3CCNCC3)cc21 [Norofloxacin]											Diameter [16]: 17

Second part, led by results:

Initial MICs (antibiotic) [2] [mg/L]	Results (MIC) [3]	SMILES	Results (diameter) [4]	Initial MICs (antibiotic) [5] [mg/L]	diameter in mm [6] [mm]	MIC (antibiotic) [7] [µg/mL]	MIC (antibiotic) [8] [µg/mL]	MIC (antibiotic) [9] [µg/mL]	MIC (antibiotic) [10] [µg/mL]	nature of the interaction between Cx1 and the antibiotic [11]	other results
256	Resistant	CC1(C)S[C@@H]2[C@H](NC(=O)[C@H](N)c3ccc(O)cc3)C(=O)N2[C@H]1C(=O)O [Amoxicillin]	Resistant								Initial MICs (antibiotic) [1]: 4/4 mg/L
4	Susceptible	CO/N=C(\C(=O)N[C@@H]1C(=O)N2C(C(=O)O)=C(COC(C)=O)CS[C@H]12)c1csc(N)n1 [Cefotaxime]	Susceptible	128	24						
	Susceptible	CO[C@@]1(NC(=O)Cc2cccs2)C(=O)N2C(C(=O)O)=C(COC(N)=O)CS[C@@H]21 [Cefoxitin]	Susceptible		11						
